Test results published in patent publication US8778935B2 (Centro Nacional de Investigaciones Oncologicas (CNIO), priority 2009, dated 2014).
Where two headings read alike, the source gives them in different places.

Key:
PI3K (p110α/p85α) = biological target: T1, PI3K (p110α/p85α) (Homo sapiens, UniProt P42336); test: PI3K Activity Assay (ADP Hunter Plus); assay type: biochemical
T1 construct: purchased Carna Biosciences 07CBS-0402A
Experimental: The kinase activity was measured by using the commercial ADP Hunter™ Plus assay available from DiscoveRx (#33-016), which is a homogeneous assay to measure the accumulation of ADP, a universal product of kinase activity. […] Reaction was carried out for 1 hour at 25° C. Reagent A and B were sequentially added to the wells and plates were incubated for 30 min at 37° C. […] Values were normalized against the control activity included for each enzyme (i.e., 100% PI3 kinase activity, without compound). These values were plot against the inhibitor concentration and were fit to a sigmoid dose-response curve by using the Graphad software.

phospho-Ser-473-Akt = test: PI3K signalling: AKT phosphorylation inhibition, Western blot analysis; assay type: cell-based; conditions: Homo sapiens, cell assay, read-out: IC50 of AKT Phosphorylation Inhibition (p-AKT cell)
Experimental: Cell culture: The cell lines were obtained from the American Type Culture Collection (ATCC). U2OS (human osteosarcoma) was cultured in Dulbecco's modified Eagle's medium (DMEM). PC3 (human prostate carcinoma), MCF7 (human breast cardinoma), HCT116 (human colon carcinoma), […], U251 (human glyoblastoma) were grown in RPMI. All media were supplemented with 10% fetal bovine serum (FBS) (Sigma) and antibiotics-antimycotics. Cell were maintained in a humidified incubator at 37° C. with 5% CO2 and passaged when confluent using trypsin/EDTA.
AKT phosphorylation Inhibition. Western Blot Analysis: Subconfluent cells were incubated under different conditions and washed twice with TBS prior to lysis. Lysis buffer was added containing 50 mM Tris HCl, 150 mM NaCl, 1% NP-40, 2 mM Na3VO4, 100 mM NaF, 20 mM Na4P2O7 and protease inhibitor cocktail (Roche Molecular Biochemicals). The proteins were resolved on 10% SDS-PAGE and transferred to nitrocellulose membrane (Schleicher & Schuell, Dassel, Germany). The membranes were incubated overnight at 4° C. with antibodies specific for Akt, phospho-Ser-473-Akt (Cell Signaling Technology) and α-tubulin (Sigma), they were washed and then incubated with IRDye800 conjugated anti-mouse and Alexa Fluor 680 goat anti-rabbit IgG secondary antibodies. The bands were visualized using an Odyssey infrared imaging system (Li-Cor Biosciences).

[1] = PI3Kα activity, quantitative results, read-out: PI3Kα IC50
[2] = quantitative results, read-out: PI3Kα IC50
[3] = semi-quantitative results, read-out: PI3Kα IC50 (semi-quantitative class)
[4] = quantitative results of Table 4, read-out: PI3Kα IC50

T1 sequence (P42336 whole entry): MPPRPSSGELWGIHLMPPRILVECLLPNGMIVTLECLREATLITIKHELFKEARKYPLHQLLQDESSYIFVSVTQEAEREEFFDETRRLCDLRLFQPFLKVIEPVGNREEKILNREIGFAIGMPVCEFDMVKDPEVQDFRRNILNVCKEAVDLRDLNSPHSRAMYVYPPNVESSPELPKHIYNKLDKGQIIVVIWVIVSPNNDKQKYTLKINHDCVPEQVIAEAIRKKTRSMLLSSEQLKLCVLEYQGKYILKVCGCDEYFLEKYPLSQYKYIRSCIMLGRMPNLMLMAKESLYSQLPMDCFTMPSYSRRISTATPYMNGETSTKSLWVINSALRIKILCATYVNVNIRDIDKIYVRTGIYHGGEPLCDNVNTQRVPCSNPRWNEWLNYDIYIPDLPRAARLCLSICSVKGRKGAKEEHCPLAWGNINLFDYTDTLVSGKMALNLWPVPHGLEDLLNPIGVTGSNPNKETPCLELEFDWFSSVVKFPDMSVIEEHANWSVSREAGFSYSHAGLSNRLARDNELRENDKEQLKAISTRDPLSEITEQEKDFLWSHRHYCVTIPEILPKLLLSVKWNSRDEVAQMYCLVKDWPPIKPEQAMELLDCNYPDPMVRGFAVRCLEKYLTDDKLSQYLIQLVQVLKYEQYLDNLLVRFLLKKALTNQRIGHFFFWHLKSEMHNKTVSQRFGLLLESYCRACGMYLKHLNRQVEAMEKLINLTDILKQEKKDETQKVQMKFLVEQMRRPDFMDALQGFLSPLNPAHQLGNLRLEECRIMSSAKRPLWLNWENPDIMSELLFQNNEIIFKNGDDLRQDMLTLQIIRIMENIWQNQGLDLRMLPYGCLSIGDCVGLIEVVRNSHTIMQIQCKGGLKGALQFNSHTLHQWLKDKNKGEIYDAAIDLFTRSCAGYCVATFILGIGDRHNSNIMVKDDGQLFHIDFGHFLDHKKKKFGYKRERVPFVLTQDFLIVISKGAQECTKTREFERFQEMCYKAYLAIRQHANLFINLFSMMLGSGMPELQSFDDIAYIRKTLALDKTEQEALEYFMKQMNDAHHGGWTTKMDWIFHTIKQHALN
T1 sequence (P27986 whole entry partner): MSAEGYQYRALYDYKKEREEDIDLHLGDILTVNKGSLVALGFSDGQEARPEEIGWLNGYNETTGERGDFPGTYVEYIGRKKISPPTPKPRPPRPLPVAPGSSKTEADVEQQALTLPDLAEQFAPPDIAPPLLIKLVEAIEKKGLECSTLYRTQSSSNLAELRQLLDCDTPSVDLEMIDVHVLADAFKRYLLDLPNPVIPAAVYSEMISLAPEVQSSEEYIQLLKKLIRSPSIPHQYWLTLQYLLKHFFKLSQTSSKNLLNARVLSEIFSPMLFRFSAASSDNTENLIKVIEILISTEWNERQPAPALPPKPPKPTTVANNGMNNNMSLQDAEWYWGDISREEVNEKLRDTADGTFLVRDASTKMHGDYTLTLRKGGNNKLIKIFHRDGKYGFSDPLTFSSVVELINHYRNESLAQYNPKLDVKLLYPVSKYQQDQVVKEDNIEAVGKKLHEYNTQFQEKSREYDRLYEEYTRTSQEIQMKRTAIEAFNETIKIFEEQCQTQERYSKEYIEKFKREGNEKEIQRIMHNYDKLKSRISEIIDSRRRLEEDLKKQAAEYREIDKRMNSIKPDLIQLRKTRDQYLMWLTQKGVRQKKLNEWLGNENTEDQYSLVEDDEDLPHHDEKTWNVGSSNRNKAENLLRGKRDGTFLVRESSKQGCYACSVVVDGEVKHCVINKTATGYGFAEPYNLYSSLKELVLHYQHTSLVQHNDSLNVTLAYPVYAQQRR

| SMILES | IC50 (PI3K (p110α/p85α); [1]) [nM] | IC50 (phospho-Ser-473-Akt) [nM] | IC50 (PI3K (p110α/p85α); [2]) [nM] | IC50 (PI3K (p110α/p85α); [4]) [nM] | IC50 (PI3K (p110α/p85α); [3]) [nM] |
| --- | --- | --- | --- | --- | --- |
| C[C@@H]1CN(S(C)(=O)=O)C[C@H](C)N1Cc1cn2cc(-c3cnc(N)nc3)nc(N3CCOCC3)c2n1 [2-219] | 3 | 244 |  |  |  |
| Cc1ncc(-c2cn3cc(CN4CCN(S(C)(=O)=O)CC4)nc3c(N3CCOCC3)n2)cn1 [2-196] | 21 | 134 |  |  |  |
| Nc1ncc(-c2cn3cc(C(F)(F)F)nc3c(N3CCOCC3)n2)cn1 [2-172] | 32 | 149 |  |  |  |
| CCS(=O)(=O)N1CCN(Cc2cn3cc(-c4cnc(N)nc4)nc(N4CCOCC4)c3n2)CC1 [2-220] | 13 | 98 |  |  |  |
| Oc1cccc(-c2cn3cc(C(F)(F)F)nc3c(N3CCOCC3)n2)c1 [2-13, 3-(2-(trifluoromethyl)-8-morpholinoimidazo[1,2-a]pyrazin-6-yl)phenol] |  | 714 | 108 |  | 100 to 1000 |
| CS(=O)(=O)N1CCN(Cc2cn3cc(-c4cccc(O)c4)nc(N4CCOCC4)c3n2)CC1 [2-10, 1-(4-((6-(3-hydroxyphenyl)-8-morpholinoimidazo[1,2-a]pyrazin-2-yl)methyl)-piperazin-1-yl)sulfonylmethane] |  | 48 |  |  |  |
| Nc1ncc(-c2cn3cc(C4CC4)nc3c(N3CCOCC3)n2)cn1 [2-171] | 50 | 379 |  |  |  |
| CCOC(=O)N1CCC(NC(=O)c2cn3cc(-c4cnc(N)nc4)nc(N4CCOCC4)c3n2)CC1 [2-188] | 3 | 60 |  |  |  |
| Nc1ncc(-c2cn3cc(C(=O)N[C@H]4CC[C@H](O)CC4)nc3c(N3CCOCC3)n2)cn1 [2-192] | 10 | 70 |  |  |  |
| CC(C)CS(=O)(=O)N1CCN(Cc2cn3cc(-c4cnc(N)nc4)nc(N4CCOCC4)c3n2)CC1 [2-221] | 11 | 135 |  |  |  |
| NC(=O)c1cn2cc(-c3cccnc3)nc(N3CCCCC3)c2n1 [2-119] |  | 87 |  | 93 |  |
| CS(=O)(=O)N1CCN(C(=O)c2cn3cc(-c4cccc5[nH]ncc45)nc(N4CCOCC4)c3n2)CC1 [2-16, (6-(1H-indazol-4-yl)-8-morpholinoimidazo[1,2-a]pyrazin-2-yl)(4-sulfonylmethyl-piperazin-1-yl)methanone] |  | 503 | 254 |  |  |
| Nc1ncc(-c2cn3cc(CN4CCS(=O)(=O)CC4)nc3c(N3CCOCC3)n2)cn1 [2-222] | 82 | 95 |  |  |  |
| CCOC(=O)c1cn2cc(-c3cccc(O)c3)nc(N3CCOCC3)c2n1 [2-01, ethyl 6-(3-hydroxyphenyl)-8-morpholinoimidazo[1,2-a]pyrazine-2-carboxylate] |  | 132 | 158 |  | 100 to 1000 |

Second part, led by results:

| IC50 (PI3K (p110α/p85α); [1]) [nM] | IC50 (phospho-Ser-473-Akt) [nM] | IC50 (PI3K (p110α/p85α); [2]) [nM] | IC50 (PI3K (p110α/p85α); [4]) [nM] | SMILES | IC50 (PI3K (p110α/p85α); [3]) [nM] |
| --- | --- | --- | --- | --- | --- |
|  | 42 | 110 |  | CNC(=O)c1cn2cc(-c3cccc4[nH]ncc34)nc(N3CCOCC3)c2n1 [2-79] |  |
|  | 116 |  | 38 | O=C(NCCN1CCOCC1)c1cn2cc(-c3cccc4[nH]ncc34)nc(N3CCOCC3)c2n1 [2-142] |  |
|  | 1050 |  | 166 | COCCNC(=O)c1cn2cc(-c3cccnc3)nc(N3CCOCC3)c2n1 [2-154] |  |
| 66 | 281 |  |  | COCCNC(=O)c1cn2cc(-c3cccc4[nH]ncc34)nc(N3CCOCC3)c2n1 [2-186] |  |
|  | 34 |  | 11 | Nc1ncc(-c2cn3cc(C(=O)NCCN4CCOCC4)nc3c(N3CCOCC3)n2)cn1 [2-164] |  |
|  | 391 |  |  | CS(=O)(=O)N1CCN(Cc2cn3cc(-c4cccc5[nH]ncc45)nc(N4CCOCC4)c3n2)CC1 [2-17, 6-(1H-indazol-4-yl)-2-((4-sulfonylmethylpiperazin-1-yl)methyl)-8-morpholino-imidazo[1,2-a]pyrazine] |  |
| 83 | 469 |  |  | Nc1ncc(-c2cn3cc(CN4CCOCC4)nc3c(N3CCOCC3)n2)cn1 [2-175] |  |
|  | 37 | 92 |  | CCNC(=O)c1cn2cc(-c3cccc4[nH]ncc34)nc(N3CCOCC3)c2n1 [2-74, N-ethyl-6-(1H-indazol-4-yl)-8-morpholinoimidazo[1,2-a]pyrazine-2-carboxamide] |  |
